{"source": "patent US20230248785A1", "about": "“METHODS AND COMPOSITIONS FOR TREATING METABOLIC CONDITIONS” (BACTANA CORP., priority 2020, published 2023)", "tested_on": "C57BL/6J mice on high-fat diet (prediabetes)", "assay": "Fasting blood glucose in prediabetic high-fat diet mice treated with FPZ, metformin or the combination (Example 6)", "type": "in vivo", "settings": "after 2 weeks of daily oral gavage, 100 mg/kg; control gavaged with water", "method": "The study uses 29 C57BL/6J mice, which are placed on a high-fat diet and allowed to develop prediabetes. The mice are fasted for 16 h, and the fasting blood glucose levels are measured to be greater than 105 mg/dL. The mice are divided up into control and treatment groups, and they are treated daily for 7 weeks with either 100 mg/kg FPZ, 100 mg/kg metformin, or a combination of FPZ with metformin, given by oral gavage. Fasting blood glucose are recorded at 2, 4, and 7 weeks of treatment."}
{"smiles": "CN(C)C(=N)N=C(N)N", "note": "[metformin]", "values": [{"measurement": "reduction in fasting blood glucose level compared to the control group", "value": 24, "unit": "%"}]}
